Results on one molecule are retold here after US9205073B2, “Method for treating virus infection using derivative of aniline” (CHINA MEDICAL UNIVERSITY, priority 2014, dated 2015).

This assay deals with JEV T1P1. The experiment in a line: Viral plaque test, JEV T1P1 replication in BHK-21 cells. In kind it is cell-based, Japanese encephalitis virus. The following applies: treated for 48 or 72 hours. As for the experimental part: BHK-21 cells and/or TE671cells were separately cultured in a 24-well culture plate, with an initial density of 3×10^4 per well, and with 1 ml of 2% FBS-containing MEM medium per well. The cells were incubated in an incubator (37° C., 5% CO2) overnight, and the medium was removed until the cells adhered to the plate. Then, fresh 2% FBS-containing MEM medium was simultaneously added into each well of the culture plate. The cells were infected with a JEV T1P1 virus strain, wherein the amount of JEV T1P1 used to infect BHK-21 cells was a multiplicity of infection (M.O.I.)=0.1, and the amount of JEV T1P1 used to infect TE671 cells was M.O.I.=0.05. Different concentrations of compound 1 (final concentrations were 0, 2.5, 25 and 125 μM, respectively) were added into different wells. The culture plate was placed into an incubator (37° C., 5% CO2) and maintained therein. […]
BHK-21 cells were cultured in a 6-well culture plate at an initial density of 3×10^5 per well with 2 ml of 2% FBS-containing MEM medium per well. […] The cells were washed with clear water, and then the viral plaques were counted to calculate the virus titer.

As to `CCOC(=O)C1=C(Nc2cc(C)cc(C)c2)OCC1=O` [Compound 1, ethyl 2-(3′,5′-dimethylanilino)-4-oxo-4,5-dihydrofuran-3-carboxylate], the “replication of JEV T1P1 (virus titer)” value is on record as “significantly decreased”.
